In ChEMBL document CHEMBL3739373, “1,2,3-Triazole derivatives as antitubercular agents: synthesis, biological evaluation and molecular docking study” (Medchemcomm, 2015):
≈ marks a conversion by molar mass, not a printed value.

Legend:
[1] = system: Mycobacterium tuberculosis; assay: Antitubercular activity against dormant phase Mycobacterium tuberculosis H37Ra ATCC 25177 incubated for 12 days by XTT reduction menadione assay; type: functional, organism-based; settings: 288 h
[2] = Antioxidant activity assessed as DPPH radical scavenging activity after 30 mins by spectrophotometric analysis; type: physicochemical
[3] = Cytotoxicity against human THP1 cells assessed as growth inhibition after 48 hrs by MTT assay; type: cell-based, THP-1; settings: for GI50 at 48 h: THP1 cells; for GI90: thp-1, 48 h
[4] = (§1) Cytotoxicity against human A549 cells assessed as growth inhibition after 48 hrs by MTT assay; type: cell-based; settings: A549 cells
[5] = system: A549; assay: as §1; type: cell-based; settings: a549, 48 h
[6] = Cytotoxicity against human PANC1 cells assessed as growth inhibition after 48 hrs by MTT assay; type: cell-based, PANC-1; settings: for GI50 at 48 h: PANC1 cells; for GI90: panc-1, 48 h
[7] = Selectivity index, ratio of GI50 for human THP1 cells to MIC for dormant phase Mycobacterium tuberculosis H37Ra ATCC 25177; type: toxicity, cell-based, THP-1; settings: read-out: Selectivity Index
[8] = Selectivity index, ratio of GI50 for human A549 cells to MIC for dormant phase Mycobacterium tuberculosis H37Ra ATCC 25177; type: toxicity, cell-based; settings: read-out: Selectivity Index
[9] = Selectivity index, ratio of GI50 for human PANC1 cells to MIC for dormant phase Mycobacterium tuberculosis H37Ra ATCC 25177; type: toxicity, cell-based, PANC-1; settings: read-out: Selectivity Index

| Compound | IC50 [1] [mg/L] | MIC [1] [mg/L] | IC50 [2] [mg/L] | GI50 at 48 h [3] [mg/L] | GI90 [3] [mg/L] | GI50 at 48 h [4] [mg/L] | GI90 [5] [mg/L] | GI50 at 48 h [6] [mg/L] | GI90 [6] [mg/L] | selectivity ratio [7] | selectivity ratio [8] | selectivity ratio [9] |
| --- | --- | --- | --- | --- | --- | --- | --- | --- | --- | --- | --- | --- |
| Cc1ccc(OCc2cn(Cc3ccc([N+](=O)[O-])cc3)nn2)cc1 | 1.1 (≈ 3.39 µM) | 29.9 (≈ 92.2 µM) | 10.9 (≈ 33.6 µM) | 14.2 (≈ 43.8 µM) | 66.4 (≈ 205 µM) | > 100 | > 100 | > 100 | > 100 | 0.5 | > 3.3 | > 3.3 |
| Cc1cc(OCc2cn(Cc3ccc(Cl)cc3)nn2)ccc1Cl | 0.2 (≈ 0.574 µM) | 26.9 (≈ 77.2 µM) | 11.4 (≈ 32.7 µM) | 31.2 (≈ 89.6 µM) | 88.1 (≈ 253 µM) | > 100 | > 100 | > 100 | > 100 | 1.2 | > 3.7 | > 3.7 |
| Clc1ccc(Cn2cc(COc3ccccc3)nn2)cc1 | 3.5 (≈ 11.7 µM) | 29.9 (≈ 99.7 µM) | 26.1 (≈ 87.1 µM) | 36.4 (≈ 121 µM) | > 100 | > 100 | > 100 | > 100 | > 100 | 1.2 | > 3.3 | > 3.3 |
| O=[N+]([O-])c1cccc(Cn2cc(COc3ccccc3)nn2)c1 | 2.4 (≈ 7.73 µM) | > 30 | 25.3 (≈ 81.5 µM) |  |  |  |  |  |  |  |  |  |
| O=[N+]([O-])c1cccc(OCc2cn(Cc3ccc(Br)cc3)nn2)c1 | 43.2 (≈ 111 µM) | > 100 | 29.4 (≈ 75.5 µM) |  |  |  |  |  |  |  |  |  |
| O=C1O[C@H]([C@@H](O)CO)C(O)=C1O [ASCORBIC ACID] |  |  | 12.7 (≈ 72.1 µM) |  |  |  |  |  |  |  |  |  |
| Clc1cccc(Cn2cc(COc3c(Cl)cc(Cl)cc3Cl)nn2)c1 | 2.2 (≈ 5.46 µM) | > 30 | 16.4 (≈ 40.7 µM) |  |  |  |  |  |  |  |  |  |
| Cc1ccc(OCc2cn(Cc3ccc(Cl)cc3)nn2)cc1 | 2.5 (≈ 7.97 µM) | 24.2 (≈ 77.1 µM) | 17.3 (≈ 55.1 µM) | 74.1 (≈ 236 µM) | > 100 | > 100 | > 100 | > 100 | > 100 | 3.1 | > 4.1 | > 4.1 |
| O=[N+]([O-])c1ccc(Cn2cc(COc3cccc([N+](=O)[O-])c3)nn2)cc1 | > 100 | > 100 | 17.1 (≈ 48.1 µM) |  |  |  |  |  |  |  |  |  |
| Clc1ccc(Cn2cc(COc3c(Cl)cc(Cl)cc3Cl)nn2)cc1 | 0.8 (≈ 1.98 µM) | 7.7 (≈ 19.1 µM) | 27.2 (≈ 67.5 µM) | 25.1 (≈ 62.3 µM) | > 100 | > 100 | > 100 | > 100 | > 100 | 3.2 | > 12.9 | > 12.9 |
| Cc1cc(C(C)(C)C)c(O)c(C(C)(C)C)c1 [BUTYLATED HYDROXYTOLUENE] |  |  | 16.5 (≈ 74.9 µM) |  |  |  |  |  |  |  |  |  |
| Cc1ccc(OCc2cn(Cc3ccc(Br)cc3)nn2)cc1 | 7.8 (≈ 21.8 µM) | > 30 | 16.3 (≈ 45.5 µM) |  |  |  |  |  |  |  |  |  |
| Clc1ccc(OCc2cn(Cc3cccc(Cl)c3)nn2)cc1 | 2.9 (≈ 8.68 µM) | 25.8 (≈ 77.2 µM) | 23.3 (≈ 69.7 µM) | 20.9 (≈ 62.5 µM) | > 100 | > 100 | > 100 | > 100 | > 100 | 0.8 | > 3.9 | > 3.9 |
| Cc1ccc(OCc2cn(Cc3cccc(Cl)c3)nn2)cc1 | 3 (≈ 9.56 µM) | 28.9 (≈ 92.1 µM) | 16.3 (≈ 51.9 µM) | 36.7 (≈ 117 µM) | 93.1 (≈ 297 µM) | > 100 | > 100 | > 100 | > 100 | 1.3 | > 3.5 | > 3.5 |
| O=[N+]([O-])c1ccc(Cn2cc(COc3ccc(Cl)cc3)nn2)cc1 | 3.6 (≈ 10.4 µM) | 27.5 (≈ 79.8 µM) | 24.2 (≈ 70.2 µM) | 31.1 (≈ 90.2 µM) | 88.9 (≈ 258 µM) | > 100 | > 100 | > 100 | > 100 | 1.1 | > 3.6 | > 3.6 |
| O=[N+]([O-])c1ccc(OCc2cn(Cc3ccc(Br)cc3)nn2)c(I)c1 | 25 (≈ 48.5 µM) | > 30 | 18.5 (≈ 35.9 µM) |  |  |  |  |  |  |  |  |  |
